ChEMBL document CHEMBL5678816, “A Next-Generation TRK Kinase Inhibitor Overcomes Acquired Resistance to Prior TRK Kinase Inhibition in Patients with TRK Fusion-Positive Solid Tumors” (Cancer Discov, 2017)
Activity calls are given as the source filed them. The rule behind the calls is not given here.

Assays:
NIH3T3 = test: Antitumor activity against mouse NIH3T3 cells harboring extracellular domain deleted TRKA implanted in nu/nu NCr mouse assessed as inhibition of tumor growth at 30 to 300 mg/kg, po administered twice daily for 10 days; type: functional, organism-based; details: dose 30-300 mg/kg, time 10.0 day
DBTRG-05MG = test: Inhibition of cell proliferation in human DBTRG-05MG cells upto 10 umol/L incubated for 72 hrs by DAPI staining based analysis; type: functional; details: dose <= 10.0 µmol/L
BT-20 = test: Inhibition of cell proliferation in human BT-20 cells upto 10 umol/L incubated for 72 hrs by DAPI staining based analysis; type: functional; details: dose <= 10.0 µmol/L
TCC-SUP = test: Inhibition of cell proliferation in human TCC-SUP cells upto 10 umol/L incubated for 72 hrs by DAPI staining based analysis; type: functional; details: dose <= 10.0 µmol/L
KPL-1 = test: Inhibition of cell proliferation in human KPL-1 cells upto 10 umol/L incubated for 72 hrs by DAPI staining based analysis; type: functional; details: dose <= 10.0 µmol/L
[1] = biological target: Cytoplasmic tyrosine-protein kinase BMX (Homo sapiens) (UniProt P51813); test: Inhibition of Bmx (unknown origin) at 1 uM in presence of ATP relative to control
[2] = biological target: Proto-oncogene tyrosine-protein kinase ROS (Homo sapiens) (UniProt P08922); test: Inhibition of Ros (unknown origin) at 1 uM in presence of ATP relative to control
[3] = Cmin in adult patient with recurrent LMNA-NTRK1 rearranged colorectal cancer at 50 mg administered twice a day as powder-in-capsule or liquid formulation for 1 day and measured 10 hrs post dose by LC-MS/MS analysis; type: ADME; details: human, in vivo, po, read-out: Cmin
[4] = biological target: Serine/threonine-protein kinase NLK (Homo sapiens) (UniProt Q9UBE8); test: Inhibition of NLK (unknown origin) at 1 uM in presence of ATP relative to control; values are per cent of control
[5] = biological target: Tyrosine-protein kinase Fes/Fps (Homo sapiens) (UniProt P07332); test: Inhibition of Fes (unknown origin) at 1 uM in presence of ATP relative to control; values are per cent of control
[6] = biological target: Tyrosine-protein kinase Fyn (Homo sapiens) (UniProt P06241); test: Inhibition of Fyn (unknown origin) at 1 uM in presence of ATP relative to control; values are per cent of control
[7] = biological target: Macrophage-stimulating protein receptor (Homo sapiens) (UniProt Q04912); test: Inhibition of Ron (unknown origin) at 1 uM in presence of ATP relative to control; values are per cent of control
[8] = biological target: Serine/threonine-protein kinase N2 (Homo sapiens) (UniProt Q16513); test: Inhibition of PRK2 (unknown origin) at 1 uM in presence of ATP relative to control; values are per cent of control
[9] = biological target: Serine/threonine-protein kinase Sgk1 (Homo sapiens) (UniProt O00141); test: Inhibition of SGK1 (unknown origin) at 1 uM in presence of ATP relative to control; values are per cent of control
[10] = biological target: Vascular endothelial growth factor receptor 1 (Homo sapiens) (UniProt P17948); test: Inhibition of FLt1 (unknown origin) at 1 uM in presence of ATP relative to control; values are per cent of control
[11] = biological target: Serine/threonine-protein kinase BRSK2 (Homo sapiens) (UniProt Q8IWQ3); test: Inhibition of BrSK2 (unknown origin) at 1 uM in presence of ATP relative to control; values are per cent of control
[12] = biological target: Serine/threonine-protein kinase pim-3 (Homo sapiens) (UniProt Q86V86); test: Inhibition of Pim-3 (unknown origin) at 1 uM in presence of ATP relative to control; values are per cent of control
[13] = biological target: SRSF protein kinase 2 (Homo sapiens) (UniProt P78362); test: Inhibition of SRPK2 (unknown origin) at 1 uM in presence of ATP relative to control; values are per cent of control
[14] = biological target: Ephrin type-A receptor 1 (Homo sapiens) (UniProt P21709); test: Inhibition of EphA1 (unknown origin) at 1 uM in presence of ATP relative to control; values are per cent of control
[15] = biological target: Mitogen-activated protein kinase kinase kinase kinase 2 (Homo sapiens) (UniProt Q12851); test: Inhibition of MAP4K2 (unknown origin) at 1 uM in presence of ATP relative to control; values are per cent of control
Homo sapiens = organism: Homo sapiens; test: Inhibition of MKK4_m (unknown origin) at 1 uM in presence of ATP relative to control; values are per cent of control
[16] = biological target: Insulin-like growth factor 1 receptor (Homo sapiens) (UniProt P08069); test: Inhibition of IGF-1R (unknown origin) at 1 uM in presence of ATP relative to control; values are per cent of control
[17] = biological target: Protein kinase C zeta type (Homo sapiens) (UniProt Q05513); test: Inhibition of PKCzeta (unknown origin) at 1 uM in presence of ATP relative to control; values are per cent of control
[18] = biological target: Protein kinase C theta type (Homo sapiens) (UniProt Q04759); test: Inhibition of PKCtheta (unknown origin) at 1 uM in presence of ATP relative to control; values are per cent of control
[19] = biological target: Cyclin-dependent kinase 5/CDK5 activator 1 (Homo sapiens) (UniProt Q00535+Q15078); test: Inhibition of CDK5/p35 (unknown origin) at 1 uM in presence of ATP relative to control; values are per cent of control
[20] = biological target: MAP kinase-activated protein kinase 5 (Homo sapiens) (UniProt Q8IW41); test: Inhibition of MAPKAP-K5 (unknown origin) at 1 uM in presence of ATP relative to control; values are per cent of control
[21] = biological target: Cyclin-dependent kinase 2/cyclin E1 (Homo sapiens) (UniProt P24864+P24941); test: Inhibition of CDK2/cyclinE (unknown origin) at 1 uM in presence of ATP relative to control; values are per cent of control
[22] = biological target: AMP-activated protein kinase (AMPK) alpha-1/beta-1/gamma-1 (Homo sapiens) (UniProt P54619+Q9Y478+Q13131); test: Inhibition of AMPK alpha1/beta1/gamma1 (unknown origin) at 1 uM in presence of ATP relative to control; values are per cent of control
Sequence of AMP-activated protein kinase (AMPK) alpha-1/beta-1/gamma-1 (Homo sapiens) (P54619 whole entry): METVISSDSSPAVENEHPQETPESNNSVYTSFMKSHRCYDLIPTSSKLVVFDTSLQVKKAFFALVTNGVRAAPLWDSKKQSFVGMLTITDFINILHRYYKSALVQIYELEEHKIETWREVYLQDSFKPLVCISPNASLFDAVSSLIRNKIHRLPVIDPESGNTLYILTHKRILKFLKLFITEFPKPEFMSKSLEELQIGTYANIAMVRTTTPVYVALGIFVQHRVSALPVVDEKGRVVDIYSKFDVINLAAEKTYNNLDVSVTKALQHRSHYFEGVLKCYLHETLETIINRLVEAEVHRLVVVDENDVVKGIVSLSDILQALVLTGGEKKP
Sequence of AMP-activated protein kinase (AMPK) alpha-1/beta-1/gamma-1 (Homo sapiens) (Q13131 whole entry partner): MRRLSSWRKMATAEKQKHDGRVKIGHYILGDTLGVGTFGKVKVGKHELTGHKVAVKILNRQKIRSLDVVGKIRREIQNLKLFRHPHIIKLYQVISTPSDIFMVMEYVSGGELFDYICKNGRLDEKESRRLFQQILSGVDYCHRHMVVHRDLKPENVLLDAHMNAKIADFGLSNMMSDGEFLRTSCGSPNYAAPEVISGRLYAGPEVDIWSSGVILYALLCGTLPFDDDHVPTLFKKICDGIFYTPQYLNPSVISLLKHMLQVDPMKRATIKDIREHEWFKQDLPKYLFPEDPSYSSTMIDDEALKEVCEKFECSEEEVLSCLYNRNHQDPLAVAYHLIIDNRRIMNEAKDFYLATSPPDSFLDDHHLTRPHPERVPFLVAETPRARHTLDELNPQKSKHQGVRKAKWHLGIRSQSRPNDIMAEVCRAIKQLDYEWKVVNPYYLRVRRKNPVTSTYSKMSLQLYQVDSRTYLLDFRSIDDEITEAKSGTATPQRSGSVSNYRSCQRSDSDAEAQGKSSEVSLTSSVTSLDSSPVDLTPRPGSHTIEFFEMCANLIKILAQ
Sequence of AMP-activated protein kinase (AMPK) alpha-1/beta-1/gamma-1 (Homo sapiens) (Q9Y478 2-270 partner limits assumed): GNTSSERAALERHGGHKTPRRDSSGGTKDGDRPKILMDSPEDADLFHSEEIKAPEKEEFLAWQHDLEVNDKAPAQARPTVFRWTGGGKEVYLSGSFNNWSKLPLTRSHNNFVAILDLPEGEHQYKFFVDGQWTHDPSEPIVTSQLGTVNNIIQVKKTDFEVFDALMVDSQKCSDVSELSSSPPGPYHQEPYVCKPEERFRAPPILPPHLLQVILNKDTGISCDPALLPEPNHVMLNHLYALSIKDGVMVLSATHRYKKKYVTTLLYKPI

Sequence of Tyrosine-protein kinase Fyn (Homo sapiens) (P06241 2-537 limits assumed): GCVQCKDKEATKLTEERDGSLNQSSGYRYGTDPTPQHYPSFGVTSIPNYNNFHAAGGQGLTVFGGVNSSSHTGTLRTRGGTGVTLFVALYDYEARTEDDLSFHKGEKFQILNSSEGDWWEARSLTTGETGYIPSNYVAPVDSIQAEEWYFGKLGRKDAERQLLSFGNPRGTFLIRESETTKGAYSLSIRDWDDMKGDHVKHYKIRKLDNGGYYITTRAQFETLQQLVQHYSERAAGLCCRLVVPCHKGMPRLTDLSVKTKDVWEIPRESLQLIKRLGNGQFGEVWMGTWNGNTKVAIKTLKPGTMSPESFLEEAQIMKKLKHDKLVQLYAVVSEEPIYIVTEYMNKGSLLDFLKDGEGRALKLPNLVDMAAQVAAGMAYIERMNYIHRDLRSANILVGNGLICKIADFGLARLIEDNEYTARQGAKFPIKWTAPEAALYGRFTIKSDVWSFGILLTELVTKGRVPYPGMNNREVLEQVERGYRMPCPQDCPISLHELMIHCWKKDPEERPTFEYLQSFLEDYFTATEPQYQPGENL
Sequence of Mitogen-activated protein kinase kinase kinase kinase 2 (Homo sapiens) (Q12851 whole entry): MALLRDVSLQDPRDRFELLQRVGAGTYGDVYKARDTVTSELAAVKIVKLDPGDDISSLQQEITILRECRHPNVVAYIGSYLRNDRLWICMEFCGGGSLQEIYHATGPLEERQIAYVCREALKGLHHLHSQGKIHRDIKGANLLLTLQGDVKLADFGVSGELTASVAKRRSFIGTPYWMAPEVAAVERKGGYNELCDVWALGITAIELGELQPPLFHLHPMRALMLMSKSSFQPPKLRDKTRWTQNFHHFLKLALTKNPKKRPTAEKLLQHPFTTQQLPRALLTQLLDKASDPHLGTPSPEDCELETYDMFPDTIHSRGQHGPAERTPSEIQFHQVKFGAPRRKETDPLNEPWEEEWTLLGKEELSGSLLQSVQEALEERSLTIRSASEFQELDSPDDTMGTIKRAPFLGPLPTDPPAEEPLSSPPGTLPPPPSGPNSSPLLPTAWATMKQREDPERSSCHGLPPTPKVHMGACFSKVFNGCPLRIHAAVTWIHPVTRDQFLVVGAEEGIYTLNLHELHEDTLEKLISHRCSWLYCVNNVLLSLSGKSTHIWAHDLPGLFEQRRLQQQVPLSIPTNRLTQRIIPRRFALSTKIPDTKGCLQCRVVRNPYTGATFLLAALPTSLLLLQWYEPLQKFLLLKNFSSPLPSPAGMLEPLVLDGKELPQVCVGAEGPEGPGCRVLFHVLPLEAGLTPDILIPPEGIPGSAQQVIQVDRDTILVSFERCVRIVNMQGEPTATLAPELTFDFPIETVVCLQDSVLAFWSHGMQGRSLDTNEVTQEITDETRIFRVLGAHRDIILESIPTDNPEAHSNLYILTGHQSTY
Sequence of MAP kinase-activated protein kinase 5 (Homo sapiens) (Q8IW41 whole entry): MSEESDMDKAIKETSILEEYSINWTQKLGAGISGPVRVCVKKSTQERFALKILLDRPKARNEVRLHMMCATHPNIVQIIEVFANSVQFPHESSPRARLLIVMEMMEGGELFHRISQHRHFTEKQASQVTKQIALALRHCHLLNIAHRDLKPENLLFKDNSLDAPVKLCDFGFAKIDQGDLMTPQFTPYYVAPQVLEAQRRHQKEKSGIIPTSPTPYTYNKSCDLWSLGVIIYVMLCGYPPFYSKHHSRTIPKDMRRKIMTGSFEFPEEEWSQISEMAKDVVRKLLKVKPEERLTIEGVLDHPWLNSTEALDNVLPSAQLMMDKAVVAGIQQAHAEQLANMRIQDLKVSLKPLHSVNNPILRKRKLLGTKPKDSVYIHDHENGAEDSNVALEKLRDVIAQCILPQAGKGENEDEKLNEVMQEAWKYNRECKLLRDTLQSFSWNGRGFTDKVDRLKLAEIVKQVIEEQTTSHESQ
Sequence of Tyrosine-protein kinase Fes/Fps (Homo sapiens) (P07332 whole entry): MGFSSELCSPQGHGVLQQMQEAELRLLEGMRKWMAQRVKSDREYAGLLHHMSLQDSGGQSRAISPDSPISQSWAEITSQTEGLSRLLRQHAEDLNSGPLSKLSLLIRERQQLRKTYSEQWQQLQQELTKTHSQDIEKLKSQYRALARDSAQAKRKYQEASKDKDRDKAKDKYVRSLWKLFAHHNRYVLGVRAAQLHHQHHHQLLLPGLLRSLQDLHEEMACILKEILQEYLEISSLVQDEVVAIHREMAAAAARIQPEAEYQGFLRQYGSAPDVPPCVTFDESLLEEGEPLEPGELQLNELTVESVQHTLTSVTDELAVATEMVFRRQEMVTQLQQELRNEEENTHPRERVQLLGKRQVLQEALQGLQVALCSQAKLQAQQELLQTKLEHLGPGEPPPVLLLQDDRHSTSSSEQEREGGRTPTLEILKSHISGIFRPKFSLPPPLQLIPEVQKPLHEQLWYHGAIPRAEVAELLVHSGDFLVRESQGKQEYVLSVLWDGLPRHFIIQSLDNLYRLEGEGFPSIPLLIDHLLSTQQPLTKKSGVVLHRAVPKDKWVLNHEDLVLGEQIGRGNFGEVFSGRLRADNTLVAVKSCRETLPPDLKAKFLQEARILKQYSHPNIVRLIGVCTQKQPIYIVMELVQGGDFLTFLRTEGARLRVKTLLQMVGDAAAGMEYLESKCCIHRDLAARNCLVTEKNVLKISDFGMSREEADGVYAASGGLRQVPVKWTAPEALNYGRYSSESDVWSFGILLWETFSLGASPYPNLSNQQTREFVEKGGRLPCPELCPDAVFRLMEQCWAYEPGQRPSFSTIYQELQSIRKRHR
Sequence of Serine/threonine-protein kinase NLK (Homo sapiens) (Q9UBE8 whole entry): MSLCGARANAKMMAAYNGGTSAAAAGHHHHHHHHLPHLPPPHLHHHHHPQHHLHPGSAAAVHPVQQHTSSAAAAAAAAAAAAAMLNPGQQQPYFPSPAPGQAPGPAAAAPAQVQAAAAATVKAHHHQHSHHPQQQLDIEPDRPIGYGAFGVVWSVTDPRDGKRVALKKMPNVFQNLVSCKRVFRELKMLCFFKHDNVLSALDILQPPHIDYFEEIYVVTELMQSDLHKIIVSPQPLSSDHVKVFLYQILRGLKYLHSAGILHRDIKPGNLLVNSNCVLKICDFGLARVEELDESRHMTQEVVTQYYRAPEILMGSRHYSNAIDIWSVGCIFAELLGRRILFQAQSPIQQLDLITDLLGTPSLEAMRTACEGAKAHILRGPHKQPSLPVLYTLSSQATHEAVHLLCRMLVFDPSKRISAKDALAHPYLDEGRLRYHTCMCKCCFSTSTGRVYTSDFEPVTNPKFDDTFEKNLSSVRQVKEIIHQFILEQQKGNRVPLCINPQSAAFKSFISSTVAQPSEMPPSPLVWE

C[C@@H]1CCc2ncc(F)cc2[C@H]2CCCN2c2ccn3ncc(c3n2)C(=O)N1 [SELITRECTINIB]
Activity (NIH3T3): Active | inhibition (DBTRG-05MG): inactive | inhibition (BT-20): inactive | inhibition (TCC-SUP): inactive | inhibition (KPL-1): inactive | inhibition [1]: 15% | inhibition [2]: 12% | concentration at 34 h [3]: 1.86 ng/mL | residual activity [4]: 110% | residual activity [5]: 99.5% | residual activity [6]: 90.5% | residual activity [7]: 88.5% | residual activity [8]: 100% | residual activity [9]: 124% | residual activity [10]: 101% | residual activity [11]: 124% | residual activity [12]: 103% | residual activity [13]: 93.5% | residual activity [14]: 74% | residual activity [15]: 102% | residual activity (Homo sapiens): 108% | residual activity [16]: 96% | residual activity [17]: 106% | residual activity [18]: 108% | residual activity [19]: 110% | residual activity [20]: 97% | residual activity [21]: 106% | residual activity [22]: 96.5%
